Measured values as given in ChEMBL document CHEMBL5241054, “Effective anti-aromatase therapy to battle against estrogen-mediated breast cancer: Comparative SAR/QSAR assessment on steroidal aromatase inhibitors” (Eur J Med Chem, 2020).

Each molecule was assayed against T1, Aromatase (Homo sapiens, UniProt P11511).
T1 sequence (P11511 whole entry): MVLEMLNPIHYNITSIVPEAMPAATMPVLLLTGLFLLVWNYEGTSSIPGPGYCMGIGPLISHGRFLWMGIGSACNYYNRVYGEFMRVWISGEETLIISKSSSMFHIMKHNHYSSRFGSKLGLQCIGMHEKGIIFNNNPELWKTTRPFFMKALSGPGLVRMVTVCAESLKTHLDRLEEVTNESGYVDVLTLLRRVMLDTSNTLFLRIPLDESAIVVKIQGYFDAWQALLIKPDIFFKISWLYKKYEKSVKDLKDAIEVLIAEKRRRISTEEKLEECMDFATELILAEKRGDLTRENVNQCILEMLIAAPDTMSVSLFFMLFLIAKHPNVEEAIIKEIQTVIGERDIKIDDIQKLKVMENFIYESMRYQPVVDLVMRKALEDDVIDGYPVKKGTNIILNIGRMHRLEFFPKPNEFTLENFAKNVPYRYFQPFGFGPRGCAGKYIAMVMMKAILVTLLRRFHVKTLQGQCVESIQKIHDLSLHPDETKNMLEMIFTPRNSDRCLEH
Molecule CO[C@@H]1C[C@@]2(C)C(=CC1=O)CC[C@@H]1[C@@H]2CC[C@]2(C)C(=O)CC[C@@H]12 has an IC50 of 11.8 µM.
Work on C[C@]12CCC(=O)C=C1[C@@H](OCc1ccccc1)C[C@@H]1[C@@H]2CC[C@]2(C)C(=O)CC[C@@H]12 yielded an IC50 of 2.5 µM.
C[C@]12C=CC(=O)C=C1C[C@@H](CCc1ccc([N+](=O)[O-])cc1)[C@@H]1[C@@H]2CC[C@]2(C)C(=O)CC[C@@H]12 gave an IC50 of 0.0149 µM.
Work on CSC1=C2CC[C@@H]3[C@H](CC[C@]4(C)C(=O)CC[C@@H]34)[C@@]2(C)CCC1=O yielded an IC50 of 4.4 µM.
Molecule C[C@]12C[C@@H](O)C(=O)C=C1CC[C@@H]1[C@@H]2CC[C@]2(C)C(=O)CC[C@@H]12 has an IC50 of 15.3 µM.
CCCCCC(=O)O[C@H]1C[C@@H]2[C@H](CC[C@]3(C)C(=O)CC[C@@H]23)[C@@]2(C)CCC(=O)C=C12 showed an IC50 of 0.0879 µM.
For C[C@]12C[C@@H](Br)C(=O)C=C1CC[C@@H]1[C@@H]2CC[C@]2(C)C(=O)CC[C@@H]12, the IC50 was 2.2 µM.
Work on C[C@]12C=CC(=O)C=C1C=C(CCc1ccccc1)[C@@H]1[C@@H]2CC[C@]2(C)C(=O)CC[C@@H]12 yielded an IC50 of 0.172 µM.
C[C@]12C=CC(=O)C=C1C[C@@H](CCc1ccc(N)cc1)[C@@H]1[C@@H]2CC[C@]2(C)C(=O)CC[C@@H]12 was tested, and the IC50 was 0.0187 µM.
CCO[C@@H]1C[C@@]2(C)C(=CC1=O)CC[C@@H]1[C@@H]2CC[C@]2(C)C(=O)CC[C@@H]12 showed an IC50 of 11.8 µM.
C[C@]12C[C@@H](Cl)C(=O)C=C1CC[C@@H]1[C@@H]2CC[C@]2(C)C(=O)CC[C@@H]12 gave an IC50 of 1.4 µM.
C[C@]12CCC(=O)C(O)=C1CC[C@@H]1C2=CC[C@]2(C)C(=O)CC[C@@H]12 was tested, and the IC50 was 0.35 µM.
COCSC1=C2CC[C@@H]3[C@H](CC[C@]4(C)C(=O)CC[C@@H]34)[C@@]2(C)CCC1=O gave an IC50 of 10 µM.
In the case of C[C@]12CCC(=O)C=C1[C@@H](Oc1ccccc1)C[C@@H]1[C@@H]2CC[C@]2(C)C(=O)CC[C@@H]12, the IC50 is reported as 0.1 µM.
C[C@@H]1C[C@@]2(C=O)C(=CC1=O)CC[C@@H]1[C@@H]2CC[C@]2(C)C(=O)CC[C@@H]12 showed an IC50 of 12 µM.
Molecule C[C@]12CCC(=O)C(SCCl)=C1CC[C@@H]1C2=CC[C@]2(C)C(=O)CC[C@@H]12 has an IC50 of 0.859 µM.
Work on CCCO[C@H]1C[C@@H]2[C@H](CC[C@]3(C)C(=O)CC[C@@H]23)[C@@]2(C)CCC(=O)C=C12 yielded an IC50 of 1.3 µM.
With CO[C@@H]1C[C@@H]2[C@H](CC[C@]3(C)C(=O)CC[C@@H]23)[C@@]2(C)CCC(=O)C=C12 the IC50 was 0.17 µM.
With CCCCC(=O)O[C@H]1C[C@@H]2[C@H](CC[C@]3(C)C(=O)CC[C@@H]23)[C@@]2(C)CCC(=O)C=C12 the IC50 was 0.14 µM.
CC1(C)C[C@@]2(C=O)C(=CC1=O)CC[C@@H]1[C@@H]2CC[C@]2(C)C(=O)CC[C@@H]12 gave an IC50 of 0.6 µM.
CCO[C@@H]1C[C@@H]2[C@H](CC[C@]3(C)C(=O)CC[C@@H]23)[C@@]2(C)CCC(=O)C=C12 gave an IC50 of 0.5 µM.
In the case of C[C@]12CCC(=O)C(S)=C1CC[C@@H]1C2=CC[C@]2(C)C(=O)CC[C@@H]12, the IC50 is reported as 3.8 µM.
In the case of CCO[C@H]1C[C@@H]2[C@H](CC[C@]3(C)C(=O)CC[C@@H]23)[C@@]2(C)CCC(=O)C=C12, the IC50 is reported as 1.4 µM.
CCCCCCCC(=O)O[C@H]1C[C@@H]2[C@H](CC[C@]3(C)C(=O)CC[C@@H]23)[C@@]2(C)CCC(=O)C=C12 was tested, and the IC50 was 0.15 µM.
Molecule CCCC(=O)O[C@H]1C[C@@H]2[C@H](CC[C@]3(C)C(=O)CC[C@@H]23)[C@@]2(C)CCC(=O)C=C12 has an IC50 of 0.2 µM.
COCOC1=C2CC[C@@H]3[C@H](CC[C@]4(C)C(=O)CC[C@@H]34)[C@@]2(C)CCC1=O showed an IC50 of 4.4 µM.
CC(=O)O[C@H]1C[C@@H]2[C@H](CC[C@]3(C)C(=O)CC[C@@H]23)[C@@]2(C)CCC(=O)C=C12 gave an IC50 of 4 µM.
For CO[C@H]1C[C@@H]2[C@H](CC[C@]3(C)C(=O)CC[C@@H]23)[C@@]2(C)CCC(=O)C=C12, the IC50 was 0.54 µM.
Work on CCCCC(=O)O[C@@H]1C[C@@H]2[C@H](CC[C@]3(C)C(=O)CC[C@@H]23)[C@@]2(C)CCC(=O)C=C12 yielded an IC50 of 1.5 µM.
In the case of CCCCCC(=O)O[C@@H]1C[C@@H]2[C@H](CC[C@]3(C)C(=O)CC[C@@H]23)[C@@]2(C)CCC(=O)C=C12, the IC50 is reported as 0.53 µM.
Molecule C[C@]12CCC(=O)C(S)=C1CC[C@@H]1[C@@H]2CC[C@]2(C)C(=O)CC[C@@H]12 has an IC50 of 3.5 µM.
With CCCCCCCC(=O)O[C@@H]1C[C@@H]2[C@H](CC[C@]3(C)C(=O)CC[C@@H]23)[C@@]2(C)CCC(=O)C=C12 the IC50 was 1.5 µM.
CCC(=O)O[C@H]1C[C@@H]2[C@H](CC[C@]3(C)C(=O)CC[C@@H]23)[C@@]2(C)CCC(=O)C=C12 showed an IC50 of 0.21 µM.
For CC1(C)C[C@@]2(CO)C(=CC1=O)CC[C@@H]1[C@@H]2CC[C@]2(C)C(=O)CC[C@@H]12, the IC50 was 5.11 µM.
With CCCO[C@@H]1C[C@@H]2[C@H](CC[C@]3(C)C(=O)CC[C@@H]23)[C@@]2(C)CCC(=O)C=C12 the IC50 was 0.55 µM.
Work on C[C@]12CCC(=O)C=C1[C@H](OCc1ccccc1)C[C@@H]1[C@@H]2CC[C@]2(C)C(=O)CC[C@@H]12 yielded an IC50 of 0.0849 µM.
C[C@]12CCC(=O)C=C1[C@H](Oc1ccccc1)C[C@@H]1[C@@H]2CC[C@]2(C)C(=O)CC[C@@H]12 was tested, and the IC50 was 23 µM.
With CC(=O)O[C@@H]1C[C@@H]2[C@H](CC[C@]3(C)C(=O)CC[C@@H]23)[C@@]2(C)CCC(=O)C=C12 the IC50 was 20 µM.
Molecule CSCSC1=C2CC[C@@H]3C(=CC[C@]4(C)C(=O)CC[C@@H]34)[C@@]2(C)CCC1=O has an IC50 of 1.2 µM.
In the case of CCCC(=O)O[C@@H]1C[C@@H]2[C@H](CC[C@]3(C)C(=O)CC[C@@H]23)[C@@]2(C)CCC(=O)C=C12, the IC50 is reported as 2.7 µM.
With C[C@@H]1C[C@@]2(CO)C(=CC1=O)CC[C@@H]1[C@@H]2CC[C@]2(C)C(=O)CC[C@@H]12 the IC50 was 11 µM.
With CCCCCCC(=O)O[C@@H]1C[C@@H]2[C@H](CC[C@]3(C)C(=O)CC[C@@H]23)[C@@]2(C)CCC(=O)C=C12 the IC50 was 1.5 µM.
For CCC(=O)O[C@@H]1C[C@@H]2[C@H](CC[C@]3(C)C(=O)CC[C@@H]23)[C@@]2(C)CCC(=O)C=C12, the IC50 was 2.2 µM.
CCCCCCC(=O)O[C@H]1C[C@@H]2[C@H](CC[C@]3(C)C(=O)CC[C@@H]23)[C@@]2(C)CCC(=O)C=C12 showed an IC50 of 0.0951 µM.
CCCCO[C@H]1C[C@@H]2[C@H](CC[C@]3(C)C(=O)CC[C@@H]23)[C@@]2(C)CCC(=O)C=C12 gave an IC50 of 0.78 µM.
CCCCO[C@@H]1C[C@@H]2[C@H](CC[C@]3(C)C(=O)CC[C@@H]23)[C@@]2(C)CCC(=O)C=C12 showed an IC50 of 0.42 µM.

Biological target: T1, Aromatase
Remark: another data set of the same source
C[C@]12CCC(=O)C=C1CC[C@@H]1[C@@H]2CC[C@]2(C)C(=O)[C@H](O)C[C@@H]12 gave an IC50 of 200 µM.
For C[C@]12CCCCC1=CC(=O)[C@@H]1[C@@H]2CC[C@]2(C)C(=O)CC[C@@H]12, the IC50 was 2.3 µM.
Work on C[C@]12CCCC(=O)C1=CC[C@@H]1[C@@H]2CC[C@]2(C)C(=O)CC[C@@H]12 yielded an IC50 of 1.2 µM.
C[C@]12CC[C@H]3[C@@H](CCC4=CC(=O)CC[C@@]43C)[C@@H]1C[C@@H](O)[C@@H]2O showed an IC50 of 899 µM.
For C[C@]12CC[C@H]3[C@@H](CCC4=CCCC[C@@]43C)[C@@H]1C[C@@H](O)[C@@H]2O, the IC50 was 700 µM.
CC(=O)OC[C@]12CCCC=C1CC[C@@H]1[C@@H]2CC[C@]2(C)C(OC(C)=O)CC[C@@H]12 (some centres not stated) was tested, and the IC50 was 38 µM.
Molecule C[C@]12CC[C@H]3[C@@H](CCC4C(=O)[C@H](O)CC[C@@]43C)[C@@H]1CC[C@@H]2O (some centres not stated) has an IC50 of 3.9 µM.
C[C@]12CC[C@H]3[C@@H](CCC4=CCCC[C@@]43CO)[C@@H]1CCC2O (some centres not stated) was tested, and the IC50 was 2.3 µM.
In the case of C[C@]12CC[C@H]3[C@@H](CCC4=CC(=O)CC[C@@]43CO)[C@@H]1C[C@@H](O)[C@@H]2O, the IC50 is reported as 2400 µM.
For C[C@]12CC[C@H]3[C@@H](CCC4=CCCC[C@@]43CO)[C@@H]1C[C@@H](O)[C@@H]2O, the IC50 was 971 µM.
With CC(=O)OC[C@]12CCCC=C1CC[C@@H]1[C@@H]2CC[C@]2(C)C(O)CC[C@@H]12 (some centres not stated) the IC50 was 44 µM.
In the case of C[C@]12CC[C@H]3[C@@H](CCC4=CC(=O)CC[C@@]43C=O)[C@@H]1CCC2=O, the IC50 is reported as 1.2 µM.
For C[C@]12CCCC=C1CC[C@@H]1[C@@H]2CC[C@]2(C)C(=O)[C@H](O)C[C@@H]12, the IC50 was 4 µM.
Work on C[C@]12CC[C@H]3[C@@H](CCC4=CC(=O)CC[C@@]43CO)[C@@H]1C[C@@H](O)C2=O yielded an IC50 of 800 µM.
C[C@]12CC[C@H]3[C@@H](CCC4=CCCC[C@@]43C=O)[C@@H]1C[C@@H](O)C2=O showed an IC50 of 28 µM.
In the case of CC(=O)OC1CC[C@H]2[C@@H]3CCC4=CCCC[C@]4(CO)[C@H]3CC[C@]12C (some centres not stated), the IC50 is reported as 100 µM.
C[C@]12CC[C@H]3[C@@H](CCC4=CCCC[C@@]43CO)[C@@H]1C[C@@H](O)C2=O was tested, and the IC50 was 8.99 µM.
For COc1cc2c(cc1O)CC[C@@H]1[C@@H]2CC[C@]2(C)[C@@H](O)CC[C@@H]12 [2-METHOXYESTRADIOL], the IC50 was 20 µM.
Work on C[C@]12CCC(=O)C=C1CC[C@@H]1[C@@H]2CC[C@]2(C)C(=O)CC[C@@H]12 [ANDROSTENEDIONE] yielded an IC50 of 1 µM.
Work on C[C@]12CC[C@@H]3c4ccc(O)cc4CC[C@H]3[C@@H]1CCC2=O [ESTRONE] yielded an IC50 of 26 µM.
With C#CC[C@]12CCC(=O)C=C1CC[C@@H]1[C@@H]2CC[C@]2(C)C(=O)CC[C@@H]12 [PLOMESTANE] the IC50 was 1 µM.
